Data from patent US20250281453A1, “COMBINATION THERAPIES COMPRISING QTX125” (QUIMATRYX, S.L., priority 2022, published 2025).

Tests used:
Assay type in all cases: cell-based
[1] = test system: Panc-1 pancreatic cancer cells; experiment: Cell viability, hexosaminidase assay, monotherapy; details: for EC50: read-out: EC50 dose of monotherapy
Description: (§1) In brief, HCT-116, MiaPaCa-2 and Panc-1 cells were thawed in high glucose DMEM (Sigma D5796) with 10% heat-inactivated Foetal Calf Serum (FCS) (PAA, A15-101)). Hep-G2 and SK-Hep1 cells were thawed in Minimum Essential Media (MEM) (Sigma M2279) with 1% non-essential amino acids (Sigma M7145), 2 mM Glutamine (Sigma G7513) and 10% FCS. SK-OV-3 cells were thawed in McCoy's 5A medium (Sigma, M8403) with 15% FCS. All cells were passaged by washing once in cation-free dPBS (Sigma, D1408), and incubated for 3 minutes with trypsin ([0.5 μg/ml]/EDTA [0.2 μg/ml] (Sigma, T4174) in dPBS). Passage was completed at 37° C., and cells were transferred to the appropriate media. Prior to seeding at defined cell density, cells were recovered in medium, centrifuged and resuspended for counting.
(§2) To prepare cells for viability assays, cells were transferred into 96 well tissue culture plates (Cultek), and resuspended in 100 µL at the following densities: 10,000 cells/well (Hep-G2 and MiaPaCa-2), 5000 cells/well (Panc-1 and SK-OV-3) or 3000 cells/well (HCT-116). Following 24 hours of incubation, media was removed and replaced with 100 µL media spiked with QTX125 and the test chemotherapeutic agents. Stock solutions for the agents used in this study are shown below in Table 1. Cells were incubated for a further 72 hours before cell viability was assessed using both ALAMAR® and hexosaminidase assays.
(§3) For the hexosaminidase assay, media containing QTX125 and the test chemotherapeutic agents was removed, and cells were washed once with PBS. 60 μL of substrate solution (containing: 7.5 mM p-nitrophenol-N-acetyl-beta-D-glucosamide [Sigma N-9376], 0.1 M sodium citrate, pH 5.0 and 0.25% Triton X-100) was added to each well and cells were incubated at 37° C. for at least 1 hour. Incubating cells in this manner causes the substrate solution to become bright yellow, at which point 90 μL of developer solution (containing 50 mM Glycine pH 10.4 and 5 mM EDTA) was added to each well. Absorbance at 410 nm was recorded using a plate reader.
(§4) A number of appropriate control samples were included. First, absorbance values measured in reagent ‘blank’ wells (containing cell culture medium and colorimetric agent only) were subtracted from ‘test’ sample-containing wells. ‘Blank’ absorbance values were routinely between 5 and 10% of the values recorded in test wells. Absorbance values recorded in test wells were then compared against wells containing (i) cells stimulated with QTX125 only; (ii) cells stimulated with sorafenib, gemcitabine or bortezomib only and/or (iii) unstimulated cells, as appropriate.
(§5) Control values were normalised to 100% and percentage (%) viability was calculated. Data were used to plot log dose-response curves using a sigmoid dose-response (variable slope) equation. EC50 values were obtained using Equation 1, where ‘X’ is the logarithmic concentration; ‘Y’ is the response output and it is assumed that Y starts at bottom of the graph and reaches the top with an overall sigmoid shape.
(§6) Prior to assessing the oncolytic efficacy of QTX125-containing combination therapies, the oncolytic effect of each test agent was assessed in isolation. Dose-response curves were produced by serial dilution (1:1), thereby allowing monotherapy EC50 values to be calculated.
(§7) Chemotherapeutic agents were added to wells at a starting concentration of 100 μM. However, it was quickly determined that it was not possible to use this range for all chemotherapeutic agents tested. An optimization study was therefore completed to identify suitable maximum (‘high’) doses for each agent and in each individual cell line.

[2] = test system: SK-OV-3 ovarian cancer cells; experiment: Cell viability, hexosaminidase assay, monotherapy; details: for EC50: read-out: EC50 dose of monotherapy
Description: as §1, §2, §3, §4, §5, §6, §7

[3] = test system: HCT-116 colonic cancer cells; experiment: Cell viability, hexosaminidase assay, monotherapy; details: for EC50: read-out: EC50 dose of monotherapy
Description: as §1, §2, §3, §4, §5, §6, §7

[4] = test system: Hep-G2 hepatic cancer cells; experiment: Cell viability, hexosaminidase assay, monotherapy; details: for percentage (%) cell viabilities: 72 hours of high-dose monotherapy (Table 2: QTX125 5, sorafenib 100, gemcitabine 100, bortezomib 1 μM); for EC50: HepG2, 72 h, read-out: EC50 dose of monotherapy
Description: as §1, §2, §3, §4, §5, §6, §7

[5] = test system: MiaPaCa-2 pancreatic cancer cells; experiment: Cell viability, hexosaminidase assay, monotherapy; details: for percentage (%) cell viabilities: 72 hours of high-dose monotherapy (Table 2: QTX125 100, sorafenib 100, gemcitabine 100, bortezomib 1 μM); for EC50: MIA PaCa-2, 72 h, read-out: EC50 dose of monotherapy
Description: as §1, §2, §3, §4, §5, §6, §7

[6] = test system: Panc-1 pancreatic cancer cells; experiment: Cell viability, ALAMAR blue assay, monotherapy; details: for EC50: 72 h, read-out: EC50 dose of monotherapy
Description: as §1, §2
(§8) For the ALAMAR® blue assay, media containing QTX125 and the test chemotherapeutic agents was removed, and cells were stained using ALAMAR® blue (BioSource DAL 1100) for 4 hours at 37° C., following the manufacturer's instructions. Relative fluorescent intensity was measured using a Cytofluor® plate reader (Millipore) at 535/590 nm (Excitation/emission). This measure directly correlates with the number of viable cells present in each well.
as §4, §5, §6, §7

[7] = test system: SK-OV-3 ovarian cancer cells; experiment: Cell viability, ALAMAR blue assay, monotherapy; details: for EC50: 72 h, read-out: EC50 dose of monotherapy
Description: as §1, §2, §8, §4, §5, §6, §7

[8] = test system: HCT-116 colonic cancer cells; experiment: Cell viability, ALAMAR blue assay, monotherapy; details: for EC50: 72 h, read-out: EC50 dose of monotherapy
Description: as §1, §2, §8, §4, §5, §6, §7

[9] = test system: Hep-G2 hepatic cancer cells; experiment: Cell viability, ALAMAR blue assay, monotherapy; details: for percentage (%) cell viabilities: 72 hours of high-dose monotherapy (Table 2: QTX125 5, sorafenib 100, gemcitabine 100, bortezomib 1 μM); for EC50: HepG2, 72 h, read-out: EC50 dose of monotherapy
Description: as §1, §2, §8, §4, §5, §6, §7

[10] = test system: MiaPaCa-2 pancreatic cancer cells; experiment: Cell viability, ALAMAR blue assay, monotherapy; details: for percentage (%) cell viabilities: 72 hours of high-dose monotherapy (Table 2: QTX125 100, sorafenib 100, gemcitabine 100, bortezomib 1 μM); for EC50: MIA PaCa-2, 72 h, 72 h, read-out: EC50 dose of monotherapy
Description: as §1, §2, §8, §4, §5, §6, §7

[11] = 72 hours of high-dose monotherapy (Table 2: QTX125 100, sorafenib 100, gemcitabine 100, bortezomib 1 μM)
[12] = 72 hours of high-dose monotherapy (Table 2: QTX125 10, sorafenib 100, gemcitabine 10, bortezomib 1 μM)
[13] = 72 hours of high-dose monotherapy (Table 2: QTX125 1, sorafenib 100, gemcitabine 10, bortezomib 1 μM)
[14] = high-dose monotherapy, 72 hours
[15] = Homo sapiens, 72 hours of high-dose monotherapy (Table 2: QTX125 100, sorafenib 100, gemcitabine 100, bortezomib 1 μM), read-out: percentage (%) cell viabilities
[16] = Homo sapiens, 72 hours of high-dose monotherapy (Table 2: QTX125 10, sorafenib 100, gemcitabine 10, bortezomib 1 μM), read-out: percentage (%) cell viabilities
[17] = Homo sapiens, 72 hours of high-dose monotherapy (Table 2: QTX125 1, sorafenib 100, gemcitabine 10, bortezomib 1 μM), read-out: percentage (%) cell viabilities
[18] = Homo sapiens, HepG2, 72 hours of high-dose monotherapy (Table 2: QTX125 5, sorafenib 100, gemcitabine 100, bortezomib 1 μM), read-out: percentage (%) cell viabilities
[19] = Homo sapiens, MIA PaCa-2, 72 hours of high-dose monotherapy (Table 2: QTX125 100, sorafenib 100, gemcitabine 100, bortezomib 1 μM), read-out: percentage (%) cell viabilities

| Compound | percentage (%) cell viabilities [1, 11] [%] | percentage (%) cell viabilities [2, 12] [%] | percentage (%) cell viabilities [3, 13] [%] | percentage (%) cell viabilities [4] [%] | percentage (%) cell viabilities [5] [%] | EC50 ([5]; Homo sapiens) [nM] | percentage (%) cell viabilities [6, 11] [%] | percentage (%) cell viabilities [7, 12] [%] | percentage (%) cell viabilities [8, 13] [%] | percentage (%) cell viabilities [9] [%] | percentage (%) cell viabilities [10] [%] | EC50 ([10]; Homo sapiens) [nM] | EC50 ([1]; Homo sapiens, 72 h) [nM] | EC50 ([2]; Homo sapiens, 72 h) [nM] | EC50 ([3]; Homo sapiens, 72 h) [nM] | EC50 ([4]; Homo sapiens) [nM] | EC50 ([6]; Homo sapiens) [nM] | EC50 ([7]; Homo sapiens) [nM] | EC50 ([8]; Homo sapiens) [nM] | EC50 ([9]; Homo sapiens) [nM] | also measured |
| --- | --- | --- | --- | --- | --- | --- | --- | --- | --- | --- | --- | --- | --- | --- | --- | --- | --- | --- | --- | --- | --- |
| Nc1ccn([C@@H]2O[C@H](CO)[C@@H](O)C2(F)F)c(=O)n1 [gemcitabine] | 62 | 50 | 20 | 54 | 47 | 33 | 8.5 | 38 | 1.9 | 24 | 24 | 26 |  |  |  |  |  |  |  |  | EC50 dose of monotherapy ([1]; 72 h): resistant; EC50 dose of monotherapy ([2]; 72 h): resistant; EC50 dose of monotherapy ([3]; 72 h): resistant; EC50 dose of monotherapy ([4]; 72 h): resistant; reduction of the population of viable cells [8, 14]: more than 98% |
| CC(C)C[C@H](NC(=O)[C@H](Cc1ccccc1)NC(=O)c1cnccn1)B(O)O [bortezomib] |  |  |  |  |  | 8.6 ± 0.5 |  |  |  |  |  | 13 ± 0.5 | 9.3 ± 0.8 | 6.8 ± 0.4 | 6.6 ± 0.5 | 16 ± 1 | 6.2 | 7 ± 1 | 7.9 ± 0.4 | 16 ± 0.7 | viability at 1 µM [1, 15]: 3%; reduction of the population of viable cells [1, 14]: 97%; viability at 1 µM [2, 16]: 9.3%; viability at 1 µM [3, 17]: 4.9%; viability at 1 µM [4, 18]: 8.8%; viability at 1 µM [5, 19]: 4.1%; viability at 1 µM [6, 15]: 0%; viability at 1 µM [7, 16]: 0%; viability at 1 µM [8, 17]: 0%; viability at 1 µM [9, 18]: 0%; viability at 1 µM [10, 19]: 0% |
| CNC(=O)c1cc(Oc2ccc(NC(=O)Nc3ccc(Cl)c(C(F)(F)F)c3)cc2)ccn1 [sorafenib] | 4.4 | 2.3 | 2.4 | 1.8 | 4.7 | 6800 ± 900 | 0.0 | 0.0 | 0.0 | 0.0 | 0.0 |  | 7400 ± 1000 | 12700 ± 1700 | 3600 ± 500 | 2700 | 7200 ± 800 | 17000 ± 2800 | 4000 ± 600 | 620 ± 160 | reduction of the population of viable cells [4, 14]: more than 98% |
